The record followed here is patent publication US12662487B2, “Imidazo[1,2-b][1,2,4]triazol derivatives for use in therapy” (SANOFI, priority 2021, dated 2026).

One experiment has as its target T1, Nurr1 (Mus musculus, UniProt Q06219).
T1 construct: N2A cells obtained from ATCC were stably transfected with NBRE8x (50-AAGGTCA-30) in tandem coupled with luciferase reporter gene; host or cells: N2A neuroblastoma cells
Kind of experiment: Activity on neuroblastoma cell lines - Nurr1 modulation (NBRE8x luciferase reporter in N2A cells). Format: cell-based. To be noted: N2A cells stably transfected with NBRE8x luciferase reporter; 24 hours with compound. The procedure:
N2A cells obtained from ATCC were stably transfected with NBRE8x (50-AAGGTCA-30) in tandem coupled with luciferase reporter gene. Each NBRE sequence was separated with 5 nucleotides. N2A were grown in 75 cm^2 flask in DMEM containing 10% calf serum, 4.5 g/L glucose and 0.4 mg/ml geneticin. After one week in culture cells were harvested by trypsinization (0.25%, 30 minutes) then plated onto 96 well dishes at the density of 60 000 cell per well in 75 μl of DMEM without phenol red containing 4.5 g/l glucose, 10% lipid free serum from Hyclone. After 24 hours compounds were added (25 μl/well) at different concentration for further 24 hours. Measurement is performed by adding 100 μl of Steadylite per well for 30 minutes and plates were read using microplate […] reader.
(In general: In a reporter assay the amount or activity of a reporter protein is the signal.)

Another experiment has as its target T2, Nur77 (Homo sapiens, UniProt P22736).
T2 construct: the Pfr-Luc (Gal4-responsive luciferase) reporter sits in the same cells
In words: Activity on HEK - Nur77 modulation (Gal4-DBD luciferase reporter in stable HEK293 cells). Format: cell-based. To be noted: HEK293 cells expressing Gal4-DBD-hNur77 and Pfr-Luc; 24 hours with compound; luminescence. The method, then: Stable HEK293 cells expressing Gal4-DBD-FL-NOT, -hNur77, -hNOR1 and Pfr-Luc were obtained by limit dilution. HEK cells were grown in 75 cm^2 flask in DMEM high glucose 30-2002™ containing 10% calf serum, hygromycin at a content of 250 μg/ml, doxycycline at a content of 2 μg/ml (to induce expression) and 0.4 mg/ml of penicillin. After one week in culture, cells were harvested by trypsinization then plated onto 96 well dishes at the density of 20 000 cell per well in 75 μl of culture medium. After 24 hours compounds were added (25 μl per well) at different concentration for further 24 hours. The medium was removed and measurement was performed by adding 50 μl of Steadyglo (Promega, E2510) with 50 μl PBS per well for 15 minutes and plates were read using microplate luminescent reader.

SMILES strings stand for the structures.

T1 sequence (Q06219 whole entry): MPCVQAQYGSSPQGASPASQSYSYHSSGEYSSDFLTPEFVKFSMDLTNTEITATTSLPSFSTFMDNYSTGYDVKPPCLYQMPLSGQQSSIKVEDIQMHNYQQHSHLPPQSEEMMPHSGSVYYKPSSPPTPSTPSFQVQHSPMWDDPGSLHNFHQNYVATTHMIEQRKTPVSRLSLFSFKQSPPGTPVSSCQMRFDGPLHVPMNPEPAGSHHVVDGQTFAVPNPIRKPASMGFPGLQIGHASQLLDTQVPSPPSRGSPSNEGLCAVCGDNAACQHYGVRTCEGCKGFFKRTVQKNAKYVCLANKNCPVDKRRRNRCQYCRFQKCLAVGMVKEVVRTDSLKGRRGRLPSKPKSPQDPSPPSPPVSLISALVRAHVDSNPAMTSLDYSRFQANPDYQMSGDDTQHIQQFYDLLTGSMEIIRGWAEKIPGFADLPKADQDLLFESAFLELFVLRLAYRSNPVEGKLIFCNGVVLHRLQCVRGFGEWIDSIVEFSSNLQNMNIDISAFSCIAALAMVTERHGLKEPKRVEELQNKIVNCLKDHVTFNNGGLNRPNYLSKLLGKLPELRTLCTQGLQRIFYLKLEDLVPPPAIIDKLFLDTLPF
T2 sequence (P22736 360-598 limits assumed): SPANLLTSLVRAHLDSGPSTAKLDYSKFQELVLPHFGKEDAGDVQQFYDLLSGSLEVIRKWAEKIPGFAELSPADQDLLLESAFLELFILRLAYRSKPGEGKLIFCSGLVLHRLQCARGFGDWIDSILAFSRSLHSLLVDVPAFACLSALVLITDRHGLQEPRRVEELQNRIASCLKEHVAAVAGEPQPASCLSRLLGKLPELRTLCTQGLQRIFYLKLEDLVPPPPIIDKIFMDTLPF

On to `Cn1c(-c2ccc3cc[nH]c3c2)cn2nc(-c3ccc(F)cc3)nc12` [compound (1), 6-[2-(4-fluorophenyl)-4-methyl-imidazo[1,2-b][1,2,4]triazol-5-yl]-1H-indole], for which the EC50 at Nurr1 was 0.7 nM. In addition, at Nur77, the IC50 was 0.03 nM.
In the case of `Cn1c(-c2cccc(F)c2)cn2nc(-c3ccc(F)cc3)nc12` [compound (2), 5-(3-fluorophenyl)-2-(4-fluorophenyl)-4-methyl-4H-imidazo[1,2-b][1,2,4]triazole], the EC50 on Nurr1 came out at 63 nM.
Regarding `Cn1c(-c2ccccc2)cn2nc(-c3cccc(CO)c3)nc12` [compound (3), [3-(4-methyl-5-phenyl-4H-imidazo[1,2-b][1,2,4]triazol-2-yl)phenyl]methanol], the EC50 on Nurr1 came out at 0.4 nM. Also, the IC50 at Nur77 was determined as 0.9 nM.

What is called EC50 is the concentration at which the effect is half-maximal. The IC50 is the concentration that inhibits the measured activity by half.
